Data from patent US9017725B2, “Topical drug delivery systems for ophthalmic use” (Aurinia Pharmaceuticals Inc., priority 2009, dated 2015).
In brackets after ≈: the same amount, converted by molar mass.

Experiment: Aqueous solubility and solubility in mixed nanomicellar formulation
Type: physicochemical
Settings: for solubility: mixed nanomicellar formulation, aqueous with cosolvent or surfactant or cyclodextrin
Protocol: The ethanolic solution was evaporated under vacuum to get a thin film near-solid matter. Deionized water, 25 mL, was added to the thin film near-solid matter and sonicated for approximately 20 min to ensure complete formation of mixed micelles. The prepared 2× formulation was stored at room temperature.

Row | improvement of solubility (mixed nanomicellar formulation versus aqueous solubility) | solubility [µg/mL] | improvement of solubility (mixed nanomicellar formulation (4 mg/mL) versus aqueous solubility) | SMILES
1 | about 6.2 fold | 1000 (≈ 2.55 mM) |  | C[C@@H]1C[C@H]2[C@@H]3CCC4=CC(=O)C=C[C@]4(C)[C@@]3(F)[C@@H](O)C[C@]2(C)[C@@]1(O)C(=O)CO [dexamethasone]
2 |  | 4000 (≈ 4.38 mM) | up to 2000 fold | CO[C@H]1C[C@@H]2CC[C@@H](C)[C@@](O)(O2)C(=O)C(=O)N2CCCC[C@H]2C(=O)O[C@H]([C@H](C)C[C@@H]2CC[C@@H](O)[C@H](OC)C2)CC(=O)[C@H](C)/C=C(\C)[C@@H](O)[C@@H](OC)C(=O)[C@H](C)C[C@H](C)/C=C/C=C/C=C/1C [rapamycin]
